Laboratory results as given in patent publication US20260116944A1, “NOVEL TRIPLE GLP-1/GIP/GLUCAGON RECEPTOR AGONIST AND A PHARMACEUTICAL COMPOSITION FOR PREVENTING OR TREATING OBESITY COMPRISING THE SAME” (HANMI PHARM. CO., LTD., priority 2022, published 2026).
*1 amine or outer side, *2 acyl side, *3 side chain or, on linkers, in order; H or OH if unused. Bridges are numbered along the chain shown (N, C = ends). Where no end group is shown, it is not given here. Side-chain parts run from the residue outwards. [ ]: non-standard residue; d: D form. The star is where a group is joined. C20 diacid = O=C(O)CCCCCCCCCCCCCCCCCCC(=O)*; γGlu = O=C(O)[C@H](CCC(=O)[*:2])N[*:1]; AEEA = NCCOCCOCC(=O)O; Aib = CC(C)(N)C(=O)O

Experiment: Weight loss effect in AMLN diet-induced obese mice
Type: in vivo
Details: 351 ug/kg, Q2D, subcutaneously, 2 weeks, vs. excipient control, p<0.001 one-way ANOVA, FIG. 1
Description: In order to confirm the weight loss effect of each of the three triple agonists of SEQ ID NO: 1, SEQ ID NO: 2, and SEQ ID NO: 4 prepared in the Example above, an AMLN (amylin) mouse model, known as an obesity model, was used. AMLN diet-induced mice were divided into an excipient control group and groups administered with three types of triple agonists (351 ug/kg, Q2D, subcutaneously), and the administration was repeated for 2 weeks.
After repeated administration for 2 weeks, the body weight was measured, and the change in body weight relative to the body weight immediately before administration (DO) was measured to evaluate weight loss effect.

Question: Which “weight loss efficacy (change in body weight relative to immediately before administration)” value does the source give for “Y-Aib-QGTFTSDYSK(1)YLDEKRAKDFVQWLLDHHPSSGQPPPS (Y[Aib]QGTFTSDYSK([AEEA-AEEA-γGlu-C20 diacid])YLDEKRAKDFVQWLLDHHPSSGQPPPS-NH2; lactam 16-20; N-terminus assumed; SMILES CC(C)C[C@H](NC(=O)[C@H](Cc1ccc(O)cc1)NC(=O)[C@H](CCCCNC(=O)COCCOCCNC(=O)COCCOCCNC(=O)CC[C@H](NC(=O)CCCCCCCCCCCCCCCCCCC(=O)O)C(=O)O)NC(=O)[C@H](CO)NC(=O)[C@H](Cc1ccc(O)cc1)NC(=O)[C@H](CC(=O)O)NC(=O)[C@H](CO)NC(=O)[C@@H](NC(=O)[C@H](Cc1ccccc1)NC(=O)[C@@H](NC(=O)CNC(=O)[C@H](CCC(N)=O)NC(=O)C(C)(C)NC(=O)[C@@H](N)Cc1ccc(O)cc1)[C@@H](C)O)[C@@H](C)O)C(=O)N[C@@H](CC(=O)O)C(=O)N[C@H]1CCC(=O)NCCCC[C@@H](C(=O)N[C@@H](CC(=O)O)C(=O)N[C@@H](Cc2ccccc2)C(=O)N[C@H](C(=O)N[C@@H](CCC(N)=O)C(=O)N[C@@H](Cc2c[nH]c3ccccc23)C(=O)N[C@@H](CC(C)C)C(=O)N[C@@H](CC(C)C)C(=O)N[C@@H](CC(=O)O)C(=O)N[C@@H](Cc2c[nH]cn2)C(=O)N[C@@H](Cc2c[nH]cn2)C(=O)N2CCC[C@H]2C(=O)N[C@@H](CO)C(=O)N[C@@H](CO)C(=O)NCC(=O)N[C@@H](CCC(N)=O)C(=O)N2CCC[C@H]2C(=O)N2CCC[C@H]2C(=O)N2CCC[C@H]2C(=O)N[C@@H](CO)C(N)=O)C(C)C)NC(=O)[C@H](C)NC(=O)[C@H](CCCNC(=N)N)NC(=O)[C@H](CCCCN)NC1=O) [SEQ ID NO: 4, acylated triple agonist peptide, K(1) at position 12, lactam bridge E16-K20]” here?
Answer: Its value is “significant weight loss efficacy”.
